Experimental data taken from patent US11066369B2, “N-(pyridin-2-yl)pyridine-sulfonamide derivatives and their use in the treatment of disease” (Novartis AG, priority 2016, dated 2021).
Where a name gives a salt, the structure may show the parent alone. Read-outs that look alike come from different tables or passages of the source.

Molecular target: T1, horseradish peroxidase (HRP) tagged delF508-CFTR (Homo sapiens, UniProt P13569, DEL508-508)
T1 construct: expressed in transfected cells
Test: Measurement of delF508-CFTR-HRP surface expression in CFBE41o- cells;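 as to DelF508-CFTR-HRP Amax %: percent efficacy relative to reference corrector lumacaftor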
Type: cell-based
Conditions: for Emax: read-out: DelF508-CFTR-HRP Amax %
Method in brief: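 Surface-trafficked delF508-CFTR detected via extracellular HRP tag, read as luminescence from a membrane-impermeant substrate in CFBE41o- cells. Cells pre-induced 48h with 500 ng/mL doxycycline, then exposed 24h at 37° C to a 10-point, 3-fold dilution series from 10 μM (DMSO ≤0.5%). Triplicate dose-responses fitted logistically for EC50 after per-plate normalization; fold change versus reference compound.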

[1] = delF508-CFTR-HRP surface expression, CFBE41o- cells
[2] = delF508-CFTR-HRP surface expression, CFBE41o- cells, read-out: DelF508-CFTR-HRP EC50

T1 sequence (P13569 with tags, fused parts or gaps DEL508-508): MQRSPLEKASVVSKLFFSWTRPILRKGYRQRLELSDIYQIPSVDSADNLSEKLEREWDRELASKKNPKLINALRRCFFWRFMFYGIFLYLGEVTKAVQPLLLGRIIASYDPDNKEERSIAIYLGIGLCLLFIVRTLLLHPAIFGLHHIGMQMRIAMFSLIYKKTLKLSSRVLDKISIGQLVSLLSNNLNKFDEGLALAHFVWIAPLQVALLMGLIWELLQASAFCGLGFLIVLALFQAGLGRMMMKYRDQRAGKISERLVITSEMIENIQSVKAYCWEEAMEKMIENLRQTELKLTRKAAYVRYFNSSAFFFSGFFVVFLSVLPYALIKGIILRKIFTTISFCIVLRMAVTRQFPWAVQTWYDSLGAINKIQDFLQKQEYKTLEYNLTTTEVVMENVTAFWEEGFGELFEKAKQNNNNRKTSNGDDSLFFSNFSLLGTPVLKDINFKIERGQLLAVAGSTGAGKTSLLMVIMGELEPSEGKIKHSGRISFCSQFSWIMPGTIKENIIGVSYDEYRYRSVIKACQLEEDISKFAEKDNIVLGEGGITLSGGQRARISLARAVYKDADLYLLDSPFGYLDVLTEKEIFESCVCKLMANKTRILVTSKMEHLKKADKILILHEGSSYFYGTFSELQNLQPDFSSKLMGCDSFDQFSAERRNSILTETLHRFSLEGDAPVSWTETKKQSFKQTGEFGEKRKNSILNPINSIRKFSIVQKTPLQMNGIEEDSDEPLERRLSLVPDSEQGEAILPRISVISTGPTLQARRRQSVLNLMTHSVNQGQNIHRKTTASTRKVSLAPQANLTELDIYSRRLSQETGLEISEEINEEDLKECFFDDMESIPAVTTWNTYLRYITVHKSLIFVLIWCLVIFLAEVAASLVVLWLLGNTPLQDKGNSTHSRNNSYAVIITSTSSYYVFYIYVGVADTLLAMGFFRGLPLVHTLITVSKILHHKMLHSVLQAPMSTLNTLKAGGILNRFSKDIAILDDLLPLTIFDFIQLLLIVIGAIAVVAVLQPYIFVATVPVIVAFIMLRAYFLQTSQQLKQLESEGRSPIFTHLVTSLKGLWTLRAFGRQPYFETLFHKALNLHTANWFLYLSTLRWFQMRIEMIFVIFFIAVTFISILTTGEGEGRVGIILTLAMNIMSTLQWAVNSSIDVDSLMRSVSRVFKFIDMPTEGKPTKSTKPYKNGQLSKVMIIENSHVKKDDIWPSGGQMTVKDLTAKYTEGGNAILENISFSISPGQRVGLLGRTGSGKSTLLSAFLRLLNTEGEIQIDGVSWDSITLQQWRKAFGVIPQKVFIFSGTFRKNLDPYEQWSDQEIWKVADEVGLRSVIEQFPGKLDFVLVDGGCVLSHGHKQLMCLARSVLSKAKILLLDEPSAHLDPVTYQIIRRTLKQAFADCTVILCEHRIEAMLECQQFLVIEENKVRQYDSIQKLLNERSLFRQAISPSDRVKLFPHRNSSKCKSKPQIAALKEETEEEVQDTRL

Structure (SMILES)	Emax [1]	EC50 [2]	EC50
COC(=O)C1(O)CCN(c2cccc(S(=O)(=O)Nc3ccc(Cl)c(-c4c(C)cccc4C)n3)n2)CC1 [Example 260, methyl 1-(6-{[5-chloro-6-(2,6-dimethylphenyl)pyridin-2-yl]sulfamoyl}pyridin-2-yl)-4-hydroxypiperidine-4-carboxylate]	59.8%	3800 nM	–
Cc1cccc(C)c1-c1nc(NS(=O)(=O)c2cccc(N3CCC(O)(C(=O)O)CC3)n2)ccc1Cl [Example 261, 1-(6-{[5-chloro-6-(2,6-dimethylphenyl)pyridin-2-yl]sulfamoyl}pyridin-2-yl)-4-hydroxypiperidine-4-carboxylic Acid]	22.8%	4140 nM	–
CCOC(=O)C1(C)CCN(c2cccc(S(=O)(=O)Nc3ccc(C(F)(F)F)c(-c4c(C)cccc4C)n3)n2)CC1 [Example 266, ethyl 1-(6-{[6-(2,6-dimethylphenyl)-5-(trifluoromethyl)pyridin-2-yl]sulfamoyl}pyridin-2-yl)-4-methylpiperidine-4-carboxylate]	–	1280 nM	–
COC(=O)C1(NC(=O)OC(C)(C)C)CCN(c2cccc(S(=O)(=O)Nc3ccc(Cl)c(-c4c(C)cccc4C)n3)n2)CC1 [Example 267, methyl 4-{[(tert-butoxy)carbonyl]amino}-1-(6-{[5-chloro-6-(2,6-dimethylphenyl)pyridin-2-yl]sulfamoyl}pyridin-2-yl)piperidine-4-carboxylate]	887%	1260 nM	–
Cc1cccc(C)c1-c1nc(NS(=O)(=O)c2cccc(N3CCC(NC(=O)OC(C)(C)C)(C(=O)O)CC3)n2)ccc1Cl [Example 268, 4-{[(tert-butoxy)carbonyl]amino}-1-(6-{[5-chloro-6-(2,6-dimethylphenyl)pyridin-2-yl]sulfamoyl}pyridin-2-yl)piperidine-4-carboxylic Acid]	103%	3730 nM	–
Cc1cccc(C)c1-c1nc(NS(=O)(=O)c2cccc(N3CCC(N)(C(=O)O)CC3)n2)ccc1Cl [Example 269, 4-amino-1-(6-{[5-chloro-6-(2,6-dimethylphenyl)pyridin-2-yl]sulfamoyl}pyridin-2-yl)piperidine-4-carboxylic Acid Hydrochloride]	105%	4000 nM	–
Cc1ccc(F)cc1-c1nc(NS(=O)(=O)c2cccc(N3CCN(C(=O)OC(C)(C)C)CC3)n2)ccc1Cl [Example 298, tert-butyl 4-(6-(N-(5-chloro-6-(5-fluoro-2-methylphenyl)pyridin-2-yl)sulfamoyl)pyridin-2-yl)piperazine-1-carboxylate]	677%	1490 nM	–
Cc1ccccc1-c1nc(NS(=O)(=O)c2cccc(N3CCC34CN(C(=O)OC(C)(C)C)C4)n2)ccc1C(F)(F)F [Example 301, tert-butyl 1-(6-(N-(6-(o-tolyl)-5-(trifluoromethyl)pyridin-2-yl)sulfamoyl)pyridin-2-yl)-1,6-diazaspiro[3.3]heptane-6-carboxylate]	546%	670 nM	–
Cc1ccc(F)cc1-c1nc(NS(=O)(=O)c2cccc(N3CCC34CNC4)n2)ccc1Cl [Example 310, N-(5-chloro-6-(5-fluoro-2-methylphenyl)pyridin-2-yl)-6-(1,6-diazaspiro[3.3]heptan-1-yl)pyridine-2-sulfonamide]	137%	4980 nM	–
Cc1ccccc1-c1nc(NS(=O)(=O)c2cccc(N3CCC34CNC4)n2)ccc1C(F)(F)F [Example 313, 6-(1,6-diazaspiro[3.3]heptan-1-yl)-N-(6-(o-tolyl)-5-(trifluoromethyl)pyridin-2-yl)pyridine-2-sulfonamide]	128%	4570 nM	–
Cc1ccc(C#N)cc1-c1nc(NS(=O)(=O)c2ccnc(N3CC(C)(O)C3)c2)ccc1C(F)(F)F [Example 317, N-(6-(5-cyano-2-methylphenyl)-5-(trifluoromethyl)pyridin-2-yl)-2-(3-hydroxy-3-methylazetidin-1-yl)pyridine-4-sulfonamide]	185%	4670 nM	–
Cc1ccc(F)cc1-c1nc(NS(=O)(=O)c2ccnc(N3CCNCC3)c2)ccc1Cl [Example 327, N-(5-chloro-6-(5-fluoro-2-methylphenyl)pyridin-2-yl)-2-(piperazin-1-yl)pyridine-4-sulfonamide]	92.5%	4260 nM	–
CCOc1ccccc1-c1nc(NS(=O)(=O)c2cccc(N3CCC[C@@](C)(C(=O)O)C3)n2)ccc1C(F)(F)F [Example 328, (R)-1-(6-(N-(6-(2-ethoxyphenyl)-5-(trifluoromethyl)pyridin-2-yl)sulfamoyl)pyridin-2-yl)-3-methylpiperidine-3-carboxylic Acid]	–	1790 nM	–
CCCOc1ccccc1-c1nc(NS(=O)(=O)c2cccc(N3CCC[C@@](C)(C(=O)O)C3)n2)ccc1C(F)(F)F [Example 329, (R)-3-methyl-1-(6-(N-(6-(2-propoxyphenyl)-5-(trifluoromethyl)pyridin-2-yl)sulfamoyl)pyridin-2-yl)piperidine-3-carboxylic Acid]	–	930 nM	–
Cc1ccccc1-c1nc(NS(=O)(=O)c2cccc(N3CC(C(=O)O)C3)n2)ccc1C(F)(F)F [Example 330, 1-(6-(N-(6-(o-tolyl)-5-(trifluoromethyl)pyridin-2-yl)sulfamoyl)pyridin-2-yl)azetidine-3-carboxylic Acid]	9.1%	2300 nM	–
Cc1ccccc1-c1nc(NS(=O)(=O)c2cccc(N3CCN(C(=O)OC(C)(C)C)[C@H](C(=O)O)C3)n2)ccc1C(F)(F)F [Example 334, (2S)-1-[(tert-butoxy)carbonyl]-4-(6-{[6-(2-methylphenyl)-5-(trifluoromethyl)pyridin-2-yl]sulfamoyl}pyridin-2-yl)piperazine-2-carboxylic Acid]	164%	2470 nM	–
Cc1ccccc1-c1nc(NS(=O)(=O)c2cccc(N3CCN[C@H](C(=O)O)C3)n2)ccc1C(F)(F)F [Example 335, (2S)-4-(6-{[6-(2-methylphenyl)-5-(trifluoromethyl)pyridin-2-yl]sulfamoyl}pyridin-2-yl)piperazine-2-carboxylic Acid]	71.3%	3140 nM	–
Cc1ccccc1-c1nc(NS(=O)(=O)c2cccc(N3CCC(C)(C(=O)O)C3)n2)ccc1C(F)(F)F (stereo not drawn) [Example 336, 3-methyl-1-(6-{[6-(2-methylphenyl)-5-(trifluoromethyl)pyridin-2-yl]sulfamoyl}pyridin-2-yl)pyrrolidine-3-carboxylic Acid]	266%	1760 nM	–
Cc1ccccc1-c1nc(NS(=O)(=O)c2cccc(N3CCN(C(=O)OC(C)(C)C)[C@@H](C(=O)O)C3)n2)ccc1C(F)(F)F [Example 338, (2R)-1-[(tert-butoxy)carbonyl]-4-(6-{[6-(2-methylphenyl)-5-(trifluoromethyl)pyridin-2-yl]sulfamoyl}pyridin-2-yl)piperazine-2-carboxylic Acid]	542%	2810 nM	–
Cc1ccccc1-c1nc(NS(=O)(=O)c2cccc(N3CCO[C@@H](C(=O)O)C3)n2)ccc1C(F)(F)F [Example 339, (2R)-4-(6-{[6-(2-methylphenyl)-5-(trifluoromethyl)pyridin-2-yl]sulfamoyl}pyridin-2-yl)morpholine-2-carboxylic Acid]	122%	2310 nM	–
Cc1ccccc1-c1nc(NS(=O)(=O)c2cccc(N3C[C@H]4C[C@H]4[C@H]3C(=O)O)n2)ccc1C(F)(F)F [Example 340, (1R,2S,5S)-3-(6-{[6-(2-methylphenyl)-5-(trifluoromethyl)pyridin-2-yl]sulfamoyl}pyridin-2-yl)-3-azabicyclo[3.1.0]hexane-2-carboxylic Acid]	278%	2450 nM	–
Cc1ccccc1-c1nc(NS(=O)(=O)c2cccc(N3CCN[C@@H](C(=O)O)C3)n2)ccc1C(F)(F)F [Example 341, (2R)-4-(6-{[6-(2-methylphenyl)-5-(trifluoromethyl)pyridin-2-yl]sulfamoyl}pyridin-2-yl)piperazine-2-carboxylic Acid]	89.2%	3030 nM	–
Cc1ccccc1-c1nc(NS(=O)(=O)c2cccc(N3C4CCC3CC(C(=O)O)C4)n2)ccc1C(F)(F)F (stereo not drawn) [Example 346, 8-(6-{[6-(2-methylphenyl)-5-(trifluoromethyl)pyridin-2-yl]sulfamoyl}pyridin-2-yl)-8-azabicyclo[3.2.1]octane-3-carboxylic Acid]	297%	–	1750 nM
Cc1ccccc1-c1nc(NS(=O)(=O)c2cccc(N3CCN(C(=O)OC(C)(C)C)C[C@@H]3C(=O)O)n2)ccc1C(F)(F)F [Example 347, (2R)-4-[(tert-butoxy)carbonyl]-1-(6-{[6-(2-methylphenyl)-5-(trifluoromethyl)pyridin-2-yl]sulfamoyl}pyridin-2-yl)piperazine-2-carboxylic Acid]	245%	1890 nM	–
Cc1ccccc1-c1nc(NS(=O)(=O)c2cccc(N3CC[C@H](C(=O)O)C3)n2)ccc1C(F)(F)F [Example 348, (3S)-1-(6-{[6-(2-methylphenyl)-5-(trifluoromethyl)pyridin-2-yl]sulfamoyl}pyridin-2-yl)pyrrolidine-3-carboxylic Acid]	145%	2830 nM	–
Cc1ccccc1-c1nc(NS(=O)(=O)c2cccc(N3CC[C@@H](C(=O)O)C3)n2)ccc1C(F)(F)F [Example 349, (3R)-1-(6-{[6-(2-methylphenyl)-5-(trifluoromethyl)pyridin-2-yl]sulfamoyl}pyridin-2-yl)pyrrolidine-3-carboxylic Acid]	252%	1640 nM	–
Cc1ccccc1-c1nc(NS(=O)(=O)c2cccc(N3CCN(C(=O)OC(C)(C)C)C[C@H]3C(=O)O)n2)ccc1C(F)(F)F [Example 350, (2S)-4-[(tert-butoxy)carbonyl]-1-(6-{[6-(2-methylphenyl)-5-(trifluoromethyl)pyridin-2-yl]sulfamoyl}pyridin-2-yl)piperazine-2-carboxylic Acid]	232%	1900 nM	–
